Results reported in PubChem BioAssay AID2060503 (Molecular Pharmacology Branch, DTP, NCI, 2025).
Where “and” joins values, the source holds several entries; their conditions need not be identical. Equal entries are not always repeated.

System: 817829-284-R-J1-PDC complex spheroids, viability
Assay: Anticancer human tumor 817829-284-R-J1-PDC patient-derived colon adenocarcinoma cell line growth inhibition [GQUAD]
Conditions: for viability, T/C: stronger effect = lower value
Source text: DNA G-quadruplex Stabilizer Agents in Combinations in Complex Spheroids
A high-throughput screen of multi-cell type tumor spheroids was designed to identify active combinations of DNA G-quadruplex stabilizer agents and targeted small molecules. Complex spheroids include a stromal component modeled by human endothelial cells (HUVEC) and fibroblasts modeled by human mesenchymal stem cells (MSCs). The concentration ranges selected for each drug and investigational agent were based upon clinically achievable concentrations if the clinical Cmax of the agent was known.
Compounds. The drugs and investigational agents: pidnarulex (CX-5461; NSC782164), APTO-253 (NSC789042), BRACO-19 (NSC847499), peposertib (NSC802822), ceralasertib (NSC780249), elimusertib (NSC800525), camonsertib (NSC841442), AZD-1390 (NSC803789), olaparib (NSC753686), talazoparib (NSC767125), ART-558 (NSC835418), sotorasib (NSC818433), MRTX-1133 (NSC836407), SN-38 (NSC673596), topotecan (NSC609699), etoposide (NSC141540), doxorubicin (NSC123127), gemcitabine (NSC613327), 5-fluorouracil (NSC19893), paclitaxel (NSC125973), vemurafenib (NSC761431), panobinostat (NSC761190), R-306465 (JNJ-16241199; NSC773264), adavosertib (NSC754352), TP-3654 (NSC805149), carboplatin (NSC241240), KSQ-4279 (NSC840948), and staurosporine (NSC755774) were obtained from the National Cancer Institute (NCI) Developmental Therapeutics Program Chemical Repository (34). The FDA-approved anticancer drug set is available from the NCI Developmental Therapeutics Program. […] The stock solutions were prepared in dimethyl sulfoxide (DMSO, Sigma-Aldrich, St. Louis, MO, cat. D2650) at 800-fold the tested concentration and stored at -70 degrees C prior to their use. All drugs and investigational agents were tested over a range starting from a high concentration at or near the clinical Cmax and decreasing in half-log increments. If the clinical Cmax for an agent had not been determined, the highest concentration tested was 10 microM.
2.3 Cell Culture. All cells were maintained in an incubator at 37 degrees C and 5% CO2 with 95% humidity. The PDC lines were cultured according to standard operating procedures established by the NCI PDMR. All PDCs were thawed and cultured in Matrigel-coated flasks prepared with a working solution of 1X Ham's F-12 nutrient mix, without supplementation (Invitrogen, cat. 11765054), 100 U/mL penicillin-streptomycin (Invitrogen, cat. 15140122), and 2.5% Matrigel (Corning Inc., cat. 354248) for the first three passages. The 857933-349-R-J2-PDC line was cultured in 6C/Colon 1B media, which includes advanced DMEM/F-12 (Thermo Fisher Scientific, cat. 12634028), 10 mM HEPES (Thermo Fisher Scientific, cat. 15630080), 1X GlutaMAX supplement (Thermo Fisher Scientific, cat. 35050061), 0.1 mg/mL primocin (InvivoGen, cat. ant-pm-2), 10% defined fetal bovine serum, heat inactivated (HyClone Laboratories Inc., cat. SH30070.03HI), 50% L-WRN conditioned media (ATCC, cat. CRL-3276), 1.25 mM N-Acetyl-L-cysteine (Sigma-Aldrich, cat. A9165), 10 mM nicotinamide (Sigma-Aldrich, cat. N0636), 1X B-27 supplement (Thermo Fisher Scientific, cat. 17504044), 1X N-2 supplement (Thermo Fisher Scientific, cat. 17502048), 10 microM Y-27632 dihydrochloride (Tocris Bioscience, cat. 1254), and 50 ng/mL human EGF recombinant protein (Thermo Fisher Scientific, cat. PHG0311). The 485176-168-R4-J1-PDC line was cultured in Panc media, which includes all 6C/Colon 1B media components plus 100 ng/mL human FGF-10 (Thermo Fisher Scientific, cat. 100-26), 500 nM SB-431542 (Selleckchem, cat. S1067), and gastrin (Tocris, cat. 3006).
[…]

[1] = curve of first compound, second compound 0.0316 µM
[2] = curve of first compound, second compound 0.1 µM
[3] = curve of first compound, second compound 0.316 µM
[4] = curve of first compound, second compound 1 µM
[5] = curve of first compound, second compound 3.16 µM
[6] = curve of first compound, second compound 10 µM
[7] = second compound 0.0316 µM, first compound 0.0316 µM
[8] = second compound 0.0316 µM, first compound 0.316 µM
[9] = second compound 0.1 µM, first compound 0.0316 µM
[10] = second compound 0.1 µM, first compound 0.316 µM
[11] = second compound 0.316 µM, first compound 0.0316 µM
[12] = second compound 0.316 µM, first compound 0.316 µM
[13] = second compound 1 µM, first compound 0.0316 µM
[14] = second compound 1 µM, first compound 0.316 µM
[15] = second compound 3.16 µM, first compound 0.0316 µM
[16] = second compound 3.16 µM, first compound 0.316 µM
[17] = second compound 10 µM, first compound 0.0316 µM
[18] = second compound 10 µM, first compound 0.316 µM
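Further: spheroids exposed to agents for 7 days before readout.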
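Wherever viability, T/C is given: percent viability relative to DMSO vehicle control taken as 100%.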

Which results are given for `Cc1[nH]c2ccccc2c1CCNCc1ccc(/C=C/C(=O)NO)cc1` + Cc1[nH]c2ccc(F)cc2c1-c1nc2c3cccnc3c3ncccc3c2[nH]1?
IC50 [1]: 54.5 nM; IC50 [2]: 53.6 nM; IC50 [3]: 55.2 nM; IC50 [4]: 51 nM; IC50 [5]: 20.2 nM; IC50 [6]: < 0.999 nM; viability, T/C (second compound 0.0316 µM, first compound 0.000999 µM): 89.7%; viability, T/C (second compound 0.0316 µM, first compound 0.00316 µM): 102%; viability, T/C (second compound 0.0316 µM, first compound 0.00999 µM): 121%; viability, T/C [7]: 91.4%; viability, T/C (second compound 0.0316 µM, first compound 0.0999 µM): 4.1%; viability, T/C [8]: 0.13%; viability, T/C (second compound 0.1 µM, first compound 0.000999 µM): 110%; viability, T/C (second compound 0.1 µM, first compound 0.00316 µM): 108%; viability, T/C (second compound 0.1 µM, first compound 0.00999 µM): 125%; viability, T/C [9]: 89.8%; viability, T/C (second compound 0.1 µM, first compound 0.0999 µM): 3.87%; viability, T/C [10]: 0.11%; viability, T/C (second compound 0.316 µM, first compound 0.000999 µM): 99.5%; viability, T/C (second compound 0.316 µM, first compound 0.00316 µM): 119%; viability, T/C (second compound 0.316 µM, first compound 0.00999 µM): 121%; viability, T/C [11]: 92.7%; viability, T/C (second compound 0.316 µM, first compound 0.0999 µM): 4.91%; viability, T/C [12]: 0.1%; viability, T/C (second compound 1 µM, first compound 0.000999 µM): 101%; viability, T/C (second compound 1 µM, first compound 0.00316 µM): 112%; viability, T/C (second compound 1 µM, first compound 0.00999 µM): 117%; viability, T/C [13]: 82%; viability, T/C (second compound 1 µM, first compound 0.0999 µM): 5.56%; viability, T/C [14]: 0.1%; viability, T/C (second compound 3.16 µM, first compound 0.000999 µM): 71.3%; viability, T/C (second compound 3.16 µM, first compound 0.00316 µM): 99.3%; viability, T/C (second compound 3.16 µM, first compound 0.00999 µM): 65.2%; viability, T/C [15]: 38.8%; viability, T/C (second compound 3.16 µM, first compound 0.0999 µM): 3.35%; viability, T/C [16]: 0.16%; viability, T/C (second compound 10 µM, first compound 0.000999 µM): 41.8%; viability, T/C (second compound 10 µM, first compound 0.00316 µM): 56.7%; viability, T/C (second compound 10 µM, first compound 0.00999 µM): 40.3%; viability, T/C [17]: 28.5%; viability, T/C (second compound 10 µM, first compound 0.0999 µM): 2.12%; viability, T/C [18]: 0.24%

Which results are given for `O=C(NO)c1cnc(N2CCN(S(=O)(=O)c3ccc4ccccc4c3)CC2)nc1` + Cc1cnc(CNC(=O)c2c(=O)c3ccc(N4CCCN(C)CC4)nc3n3c2sc2ccccc23)cn1?
IC50 [1]: 53.3 nM; IC50 [2]: < 31.6 nM; IC50 [3]: < 31.6 nM; IC50 [4]: < 31.6 nM; IC50 [5]: < 31.6 nM; IC50 [6]: < 31.6 nM; viability, T/C [7]: 77.5%; viability, T/C (second compound 0.0316 µM, first compound 0.1 µM): 16.4%; viability, T/C [8]: 5.04%; viability, T/C (second compound 0.0316 µM, first compound 1 µM): 0.12%; viability, T/C (second compound 0.0316 µM, first compound 3.16 µM): 0.03%; viability, T/C (second compound 0.0316 µM, first compound 10 µM): 0.07%; viability, T/C [9]: 19.2%; viability, T/C (second compound 0.1 µM, first compound 0.1 µM): 21.4%; viability, T/C [10]: 3.6%; viability, T/C (second compound 0.1 µM, first compound 1 µM): 0.1%; viability, T/C (second compound 0.1 µM, first compound 3.16 µM): 0.02%; viability, T/C (second compound 0.1 µM, first compound 10 µM): 0.06%; viability, T/C [11]: 18.8%; viability, T/C (second compound 0.316 µM, first compound 0.1 µM): 18.1%; viability, T/C [12]: 4.03%; viability, T/C (second compound 0.316 µM, first compound 1 µM): 0.05%; viability, T/C (second compound 0.316 µM, first compound 3.16 µM): 0.02%; viability, T/C (second compound 0.316 µM, first compound 10 µM): 0.06%; viability, T/C [13]: 17.5%; viability, T/C (second compound 1 µM, first compound 0.1 µM): 16.4%; viability, T/C [14]: 1.77%; viability, T/C (second compound 1 µM, first compound 1 µM): 0.04%; viability, T/C (second compound 1 µM, first compound 3.16 µM): 0.03%; viability, T/C (second compound 1 µM, first compound 10 µM): 0.07%; viability, T/C [15]: 14.8%; viability, T/C (second compound 3.16 µM, first compound 0.1 µM): 12.7%; viability, T/C [16]: 0.09%; viability, T/C (second compound 3.16 µM, first compound 1 µM): 0.05%; viability, T/C (second compound 3.16 µM, first compound 3.16 µM): 0.06%; viability, T/C (second compound 3.16 µM, first compound 10 µM): 0.09%; viability, T/C [17]: 0.07%; viability, T/C (second compound 10 µM, first compound 0.1 µM): 0.11%; viability, T/C [18]: 0.13%; viability, T/C (second compound 10 µM, first compound 1 µM): 0.09%; viability, T/C (second compound 10 µM, first compound 3.16 µM): 0.14%; viability, T/C (second compound 10 µM, first compound 10 µM): 0.15%

With `CCCS(=O)(=O)Nc1ccc(F)c(C(=O)c2c[nH]c3ncc(-c4ccc(Cl)cc4)cc23)c1F` as the compound, how does the viability, T/C (compound 0.0316 µM) read?
Its viability, T/C is 117% and 113% and 109%.

And the viability, T/C (compound 0.1 µM)?
Its viability, T/C is 106% and 102% and 81.6%.

And the viability, T/C (compound 0.316 µM)?
The viability, T/C was 110% and 103% (2×).

And the viability, T/C (compound 1 µM)?
Its viability, T/C is 92.1% and 92.8% and 79.2%.

What about the viability, T/C (compound 3.16 µM) of the same compound?
The viability, T/C was 75.5% and 88.9% and 75.2%.

And the viability, T/C (compound 10 µM)?
The viability, T/C was 21% and 22% and 16.1%.

What about the IC50 (curve of compound) of the same compound?
The IC50 was 5280 nM and 6050 nM and 4910 nM.
